According to ChEMBL document CHEMBL3046252, “Synthesis and herbicidal potential of substituted aurones” (2012):

How the values were obtained:
Type in all cases: functional
Echinochloa crus-galli [1] = experiment: Herbicidal activity against Echinochloa crus-galli (barnyard grass) plants assessed as inhibition of seedling growth at 1000 ug/ml after 65 hr by barnyard cup test; details: read-out: GI
Echinochloa crus-galli [2] = experiment: Herbicidal activity against Echinochloa crus-galli (barnyard grass) plants assessed as inhibition of seedling growth at 100 ug/ml after 65 hr by barnyard cup test; details: read-out: GI
[3] = tested on: Brassica rapa subsp. oleifera; experiment: Herbicidal activity against Brassica rapa subsp. oleifera assessed as inhibition of root growth at 1000 ug/ml after 65 hr by rape cup test; details: read-out: GI
[4] = tested on: Brassica rapa subsp. oleifera; experiment: Herbicidal activity against Brassica rapa subsp. oleifera assessed as inhibition of root growth at 100 ug/ml after 65 hr by rape cup test; details: read-out: GI
Digitaria sanguinalis [5] = experiment: Post-emergence herbicidal activity against Digitaria sanguinalis (hairy crabgrass) seedlings assessed as inhibition of plant fresh weight growth at 1500 g/ha applied through spraying under greenhouse conditions; details: read-out: GI
Digitaria sanguinalis [6] = experiment: Pre-emergence herbicidal activity against Digitaria sanguinalis (hairy crabgrass) assessed as inhibition of plant fresh weight growth at 1500 g/ha applied to soil through spraying under greenhouse conditions; details: read-out: GI
Echinochloa crus-galli [7] = experiment: Post-emergence herbicidal activity against Echinochloa crus-galli (barnyard grass) seedlings assessed as inhibition of plant fresh weight growth at 1500 g/ha applied through spraying under greenhouse conditions; details: read-out: GI
Echinochloa crus-galli [8] = experiment: Pre-emergence herbicidal activity against Echinochloa crus-galli (barnyard grass) assessed as inhibition of plant fresh weight growth at 1500 g/ha applied to soil through spraying under greenhouse conditions; details: read-out: GI
Amaranthus retroflexus [9] = experiment: Post-emergence herbicidal activity against Amaranthus retroflexus seedlings assessed as inhibition of plant fresh weight growth at 1500 g/ha applied through spraying under greenhouse conditions; details: read-out: GI
Amaranthus retroflexus [10] = experiment: Pre-emergence herbicidal activity against Amaranthus retroflexusassessed as inhibition of plant fresh weight growth at 1500 g/ha applied to soil through spraying under greenhouse conditions; details: read-out: GI
[11] = tested on: Brassica rapa subsp. oleifera; experiment: Post-emergence herbicidal activity against Brassica rapa subsp. oleifera seedlings assessed as inhibition of plant fresh weight growth at 1500 g/ha applied through spraying under greenhouse conditions; details: read-out: GI
[12] = tested on: Brassica rapa subsp. oleifera; experiment: Pre-emergence herbicidal activity against Brassica rapa subsp. oleifera assessed as inhibition of plant fresh weight growth at 1500 g/ha applied to soil through spraying under greenhouse conditions; details: read-out: GI
Paraixeris denticulata [13] = experiment: Herbicidal activity against Paraixeris denticulata assessed as germination rate at 1000 ug/ml measured on fourth day post dose (reference value: 100%)
Paraixeris denticulata [14] = experiment: Herbicidal activity against Paraixeris denticulata assessed as germination rate at 1000 ug/ml measured on third day post dose (reference value: 97.4 +/- 0.6%)
Paraixeris denticulata [15] = experiment: Herbicidal activity against Paraixeris denticulata assessed as germination rate at 1000 ug/ml measured on second day post dose (reference value: 76.7 +/- 0.3%)
Paraixeris denticulata [16] = experiment: Herbicidal activity against Paraixeris denticulata assessed as germination rate at 1000 ug/ml measured on first day post dose (reference value: 30.8 +/- 1.2%)
Echinochloa crus-galli [17] = experiment: Herbicidal activity against Echinochloa crus-galli (barnyard grass) plants assessed as germination rate at 1000 ug/ml measured on second day post dose (reference value: 100%)
Echinochloa crus-galli [18] = experiment: Herbicidal activity against Echinochloa crus-galli (barnyard grass) plants assessed as germination rate at 1000 ug/ml measured on first day post dose (reference value: 49.1 +/- 1.6%)
Digitaria sanguinalis [19] = experiment: Post-emergence herbicidal activity against Digitaria sanguinalis (hairy crabgrass) seedlings assessed as inhibition of plant fresh weight growth at 150 g/ha applied through spraying under greenhouse conditions; details: read-out: GI
Digitaria sanguinalis [20] = experiment: Pre-emergence herbicidal activity against Digitaria sanguinalis (hairy crabgrass) assessed as inhibition of plant fresh weight growth at 150 g/ha applied to soil through spraying under greenhouse conditions; details: read-out: GI
Echinochloa crus-galli [21] = experiment: Post-emergence herbicidal activity against Echinochloa crus-galli (barnyard grass) seedlings assessed as inhibition of plant fresh weight growth at 150 g/ha applied through spraying under greenhouse conditions; details: read-out: GI
Echinochloa crus-galli [22] = experiment: Pre-emergence herbicidal activity against Echinochloa crus-galli (barnyard grass) assessed as inhibition of plant fresh weight growth at 150 g/ha applied to soil through spraying under greenhouse conditions; details: read-out: GI
Amaranthus retroflexus [23] = experiment: Post-emergence herbicidal activity against Amaranthus retroflexus seedlings assessed as inhibition of plant fresh weight growth at 150 g/ha applied through spraying under greenhouse conditions; details: read-out: GI
Amaranthus retroflexus [24] = experiment: Pre-emergence herbicidal activity against Amaranthus retroflexus assessed as inhibition of plant fresh weight growth at 150 g/ha applied to soil through spraying under greenhouse conditions; details: read-out: GI
[25] = tested on: Brassica rapa subsp. oleifera; experiment: Herbicidal activity against Brassica rapa subsp. oleifera assessed as inhibition of root growth at 10 ug/ml after 65 hr by rape cup test; details: read-out: GI
[26] = tested on: Brassica rapa subsp. oleifera; experiment: Post-emergence herbicidal activity against Brassica rapa subsp. oleifera seedlings assessed as inhibition of plant fresh weight growth at 150 g/ha applied through spraying under greenhouse conditions; details: read-out: GI
[27] = tested on: Brassica rapa subsp. oleifera; experiment: Pre-emergence herbicidal activity against Brassica rapa subsp. oleifera assessed as inhibition of plant fresh weight growth at 150 g/ha applied to soil through spraying under greenhouse conditions; details: read-out: GI
Digitaria sanguinalis [28] = experiment: Herbicidal activity against Digitaria sanguinalis (hairy crabgrass) assessed as germination rate at 1000 ug/ml measured on third day post dose (reference value: 100%)
Digitaria sanguinalis [29] = experiment: Herbicidal activity against Digitaria sanguinalis (hairy crabgrass) assessed as germination rate at 1000 ug/ml measured on second day post dose (reference value: 100%)
Digitaria sanguinalis [30] = experiment: Herbicidal activity against Digitaria sanguinalis (hairy crabgrass) assessed as germination rate at 1000 ug/ml measured on first day post dose (reference value: 0%)

Question: For CCOc1cc(OCC)c2c(c1)O/C(=C\c1ccc(OCc3ccccc3)c(OC)c1)C2=O, which inhibition of growth at 1000 µg/mL (Echinochloa crus-galli [1]) is on record?
Answer: 26.7%

Question: And the inhibition of growth at 100 µg/mL (Echinochloa crus-galli [2])?
Answer: 15%

Question: What about the inhibition of growth at 1000 µg/mL [3] of the same molecule?
Answer: 72.6%

Question: And the inhibition of growth at 100 µg/mL [4]?
Answer: 79.2%

Question: What about the inhibition of growth at 1500 g/ha (Digitaria sanguinalis [5]) of the same molecule?
Answer: 5%

Question: What about the inhibition of growth at 1500 g/ha (Digitaria sanguinalis [6]) of the same molecule?
Answer: 10%

Question: And the inhibition of growth at 1500 g/ha (Echinochloa crus-galli [7])?
Answer: 7.9%

Question: What about the inhibition of growth at 1500 g/ha (Echinochloa crus-galli [8]) of the same molecule?
Answer: 0%

Question: And the inhibition of growth at 1500 g/ha (Amaranthus retroflexus [9])?
Answer: 0%

Question: What about the inhibition of growth at 1500 g/ha (Amaranthus retroflexus [10]) of the same molecule?
Answer: 5%

Question: What about the inhibition of growth at 1500 g/ha [11] of the same molecule?
Answer: 0%

Question: What about the inhibition of growth at 1500 g/ha [12] of the same molecule?
Answer: 0%

Question: For COc1cc(OC)c2c(c1)O/C(=C\c1ccccc1F)C2=O, which inhibition of growth at 1000 µg/mL (Echinochloa crus-galli [1]) is on record?
Answer: 45%

Question: What about the inhibition of growth at 100 µg/mL (Echinochloa crus-galli [2]) of the same molecule?
Answer: 15%

Question: What about the inhibition of growth at 1000 µg/mL [3] of the same molecule?
Answer: 86.8%

Question: What about the inhibition of growth at 100 µg/mL [4] of the same molecule?
Answer: 74.7%

Question: What about the inhibition of growth at 1500 g/ha (Digitaria sanguinalis [5]) of the same molecule?
Answer: 0%

Question: What about the inhibition of growth at 1500 g/ha (Digitaria sanguinalis [6]) of the same molecule?
Answer: 0%

Question: And the inhibition of growth at 1500 g/ha (Echinochloa crus-galli [7])?
Answer: 6.5%

Question: And the inhibition of growth at 1500 g/ha (Echinochloa crus-galli [8])?
Answer: 15%

Question: What about the inhibition of growth at 1500 g/ha (Amaranthus retroflexus [9]) of the same molecule?
Answer: 40.1%

Question: And the inhibition of growth at 1500 g/ha (Amaranthus retroflexus [10])?
Answer: 10%

Question: And the inhibition of growth at 1500 g/ha [11]?
Answer: 0%

Question: What about the Activity (Paraixeris denticulata [13]) of the same molecule?
Answer: 100%

Question: And the inhibition of growth at 1500 g/ha [12]?
Answer: 0%

Question: And the Activity (Paraixeris denticulata [14])?
Answer: 76.7%

Question: What about the Activity (Paraixeris denticulata [15]) of the same molecule?
Answer: 58.9%

Question: What about the Activity (Paraixeris denticulata [16]) of the same molecule?
Answer: 17.8%

Question: And the Activity (Echinochloa crus-galli [17])?
Answer: 100%

Question: What about the Activity (Echinochloa crus-galli [18]) of the same molecule?
Answer: 11.4%

Question: CS(=O)(=O)c1ccc(C(=O)C2C(=O)CCCC2=O)c([N+](=O)[O-])c1 [MESOTRIONE] was tested. Which inhibition of growth at 150 g/ha (Digitaria sanguinalis [19]) did it give?
Answer: 100%

Question: What about the inhibition of growth at 150 g/ha (Digitaria sanguinalis [20]) of the same molecule?
Answer: 100%

Question: What about the inhibition of growth at 150 g/ha (Echinochloa crus-galli [21]) of the same molecule?
Answer: 86.7%

Question: And the inhibition of growth at 150 g/ha (Echinochloa crus-galli [22])?
Answer: 92.5%

Question: And the inhibition of growth at 150 g/ha (Amaranthus retroflexus [23])?
Answer: 100%

Question: And the inhibition of growth at 150 g/ha (Amaranthus retroflexus [24])?
Answer: 97.9%

Question: And the inhibition of growth at 1000 µg/mL (Echinochloa crus-galli [1])?
Answer: 96.1%

Question: And the inhibition of growth at 100 µg/mL (Echinochloa crus-galli [2])?
Answer: 90.5%

Question: And the inhibition of growth at 1000 µg/mL [3]?
Answer: 93.4%

Question: What about the inhibition of growth at 100 µg/mL [4] of the same molecule?
Answer: 89.7%

Question: And the inhibition of growth at 10 µg/mL [25]?
Answer: 80.3%

Question: And the inhibition of growth at 150 g/ha [26]?
Answer: 100%

Question: And the inhibition of growth at 150 g/ha [27]?
Answer: 97.8%

Question: COc1cc(OC)c2c(c1)O/C(=C\c1ccccc1)C2=O was tested. Which inhibition of growth at 1000 µg/mL (Echinochloa crus-galli [1]) did it give?
Answer: 20%

Question: What about the inhibition of growth at 100 µg/mL (Echinochloa crus-galli [2]) of the same molecule?
Answer: 0%

Question: What about the inhibition of growth at 1000 µg/mL [3] of the same molecule?
Answer: 91.4%

Question: What about the inhibition of growth at 100 µg/mL [4] of the same molecule?
Answer: 88.5%

Question: And the inhibition of growth at 10 µg/mL [25]?
Answer: 81.3%

Question: And the inhibition of growth at 1500 g/ha (Digitaria sanguinalis [5])?
Answer: 0%

Question: And the inhibition of growth at 1500 g/ha (Digitaria sanguinalis [6])?
Answer: 0%

Question: What about the inhibition of growth at 1500 g/ha (Echinochloa crus-galli [7]) of the same molecule?
Answer: 0%

Question: And the inhibition of growth at 1500 g/ha (Echinochloa crus-galli [8])?
Answer: 10%

Question: And the inhibition of growth at 1500 g/ha (Amaranthus retroflexus [9])?
Answer: 42.2%

Question: What about the inhibition of growth at 1500 g/ha (Amaranthus retroflexus [10]) of the same molecule?
Answer: 0%

Question: And the inhibition of growth at 1500 g/ha [11]?
Answer: 15%

Question: And the Activity (Paraixeris denticulata [13])?
Answer: 100%

Question: What about the inhibition of growth at 1500 g/ha [12] of the same molecule?
Answer: 0%

Question: What about the Activity (Paraixeris denticulata [14]) of the same molecule?
Answer: 95%

Question: What about the Activity (Paraixeris denticulata [15]) of the same molecule?
Answer: 75.7%

Question: What about the Activity (Paraixeris denticulata [16]) of the same molecule?
Answer: 2.5%

Question: And the Activity (Digitaria sanguinalis [28])?
Answer: 100%

Question: And the Activity (Digitaria sanguinalis [29])?
Answer: 22.5%

Question: What about the Activity (Digitaria sanguinalis [30]) of the same molecule?
Answer: 0%

Question: What about the Activity (Echinochloa crus-galli [17]) of the same molecule?
Answer: 100%

Question: And the Activity (Echinochloa crus-galli [18])?
Answer: 18.8%
